Reference: paper PMC7766225, “Structure-Based Discovery and Bioactivity Evaluation of Novel Aurora-A Kinase Inhibitors as Anticancer Agents via Docking-Based Comparative Intermolecular Contacts Analysis (dbCICA)” (Molecules, 2020)
Where “and” joins values, the source holds several entries; their conditions need not be identical. Equal values may be shown once. Read-outs that look alike come from different tables or passages of the source.

Experiments:
PANC1 cells = assay: MTT cytotoxicity/anti-proliferation assay, PANC1; format: cell-based, human; conditions: Homo sapiens; for IC50: PANC-1, 72 h, Panc1, 72 h; for inhibition at 25 µM / inhibition at 50 µM: PANC-1, 72 h; for inhibition at 25 µM: Panc1, 25 µM; for inhibition at 50 µM: Panc1, 50 µM
Protocol: (§1) The human cell-lines triple negative breast adenocarcinoma MDA-MB-231, Pancreas adenocarcinoma PANC1, ductal breast carcinoma T-47D and fibroblasts were preserved and expanded in DMEM medium, while the prostate adenocarcinoma PC-3 cells were cultured in RPMI-1640 growth medium. All growth media were supplemented with 10% heat-inactivated fetal bovine serum (FBS). Cells were maintained under standard culture conditions at 37 °C, 5% CO2 in a humidified incubator. At 80% confluency, cells were washed with 5 mL phosphate buffer saline (1X PBS), then incubated for 4 min with 2–3 mL Trypsin-EDTA 0.25% in order to obtain suspended cells and collect them in a known volume of fresh media for cell count. Cells were counted using conventional hemocytometer and trypan blue dye method.
(§2) The five potent hits that have shown anti-Aurora-A Kinase inhibition percentages above 51% at 10 μM upon conducting the kinase enzyme Inhibition assay (Table 5) were further validated using MTT cytotoxicity Assay. This assay includes 3-(4,5-Dimethylthiazol-2-yl)-2,5-diphenyl tetrazolium bromide (MTT) dye, which is a yellowish tetrazole reduced by viable cells into formazan purple color, which detects the normal mitochondrial role in viable cells. In 96-well coated flat bottom microplates, 100 μL cell suspension of PANC1 or T-47D cells were seeded at a density of 7000 cell/well, and 6000 cell/well for MDA-MB-231, PC-3, or fibroblasts, and incubated under the same conditions at 37 °C. After 24 h, each well was treated with the intended drug concentration diluted in 200 μL fresh media after removal of the old 100-μL media. After 72 h incubation, drug-containing media was aspirated and on each well 100 μL phenol-red free media and 15-μL MTT solution (5 mg/mL (wt/vol) PBS). After 3 h of dark incubation at 37 °C, MTT and media were carefully withdrawn from each well, and 200 μL/well DMSO were added. Colorimetric absorbance (OD) was measured at 570 nm wavelength using 96-well plate reader (Tecan-Sunrise, Männedorf, Switzerland).
(§3) The five compounds were prepared in a stock concentrate of 10 mM using cell culture grade DMSO to be utilized in MTT assay. The cytotoxicity of each compound was initially screened on cancer cell-lines at two concentrations: 50 μM and 25 μM in duplicates. […] The safety index for the compounds with specified IC50 values was evaluated via determining their IC50 values against normal Fibroblast cells. It is noteworthy to mention that DMSO concentration was constant on all the wells (i.e., (0.5% v/v or 1 μL/200 μL) per well), for the treated and the control ones. IC50 values were calculated using nonlinear regression of the dose–response curves using GraphPad Prism software 7.03.

MDA-MB-231 cells = assay: MTT cytotoxicity/anti-proliferation assay, MDA-MB-231; format: cell-based, human; conditions: Homo sapiens; for IC50: MDA-MB-231, 72 h; for inhibition at 25 µM: MDA-MB-231, 25 µM; for inhibition at 25 µM / inhibition at 50 µM: 72 h; for inhibition at 50 µM: MDA-MB-231, 50 µM
Protocol: as §1, §2, §3

Aurora-A kinase [1] = target: T1, Aurora-A kinase (Homo sapiens, UniProt O14965); assay: FRET-based Z'-LYTE kinase enzyme inhibition assay; format: biochemical; conditions: for IC50: nonlinear regression; for Hill Slope: dose-response curve, GraphPad Prism; for inhibition at 10 µM: read-out: % Inhibition at 10 µM
T1 construct: purchased Invitrogen (Carlsbad, CA, USA)
T1 sequence (O14965 1-403): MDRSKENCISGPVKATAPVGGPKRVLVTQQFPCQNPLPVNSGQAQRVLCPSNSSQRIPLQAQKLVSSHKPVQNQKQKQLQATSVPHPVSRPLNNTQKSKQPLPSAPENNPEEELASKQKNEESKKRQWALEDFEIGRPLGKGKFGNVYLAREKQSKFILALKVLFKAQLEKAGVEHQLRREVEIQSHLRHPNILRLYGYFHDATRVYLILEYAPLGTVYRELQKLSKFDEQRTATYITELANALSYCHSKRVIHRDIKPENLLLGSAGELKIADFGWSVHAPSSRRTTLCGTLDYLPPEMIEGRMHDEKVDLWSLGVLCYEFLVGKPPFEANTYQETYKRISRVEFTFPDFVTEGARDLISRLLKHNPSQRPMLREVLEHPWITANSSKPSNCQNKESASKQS
Protocol: This bioassay was conducted using Z′-LYTE® kinase assay (Invitrogen, Carlsbad, CA, USA) [68, 69]. This biochemical assay depends on fluorescence emission as detection method utilizing a synthetic fluorescence resonance energy transfer (FRET) peptide with two fluorophores: coumarin that work as donor and fluorescein as acceptor [69]. Each hit or compound was dissolved in DMSO to form 10 mM stock solution. Hits were screened at 10 μM concentration. The bioassay was performed in black 384-well plate. For each assay, 100 nL of tested compound stock solution (10 mM) was mixed with 2.4 μL kinase buffer, 5 μL (peptide substrate/Aurora-A Kinase) mixture, and 2.5 μL ATP solution.
The tests were conducted in duplicates.

T-47D cells = assay: MTT cytotoxicity/anti-proliferation assay, T-47D; format: cell-based; conditions: Homo sapiens, T47D, 72 h
Protocol: as §1, §2, §3

Aurora-A kinase [2] = target: T1, Aurora-A kinase; conditions: Table S1, ChEMBL, cited from earlier work
Fibroblasts = assay: MTT cytotoxicity assay on normal fibroblasts (safety index); format: cell-based; conditions: Homo sapiens, Fibroblast, 72 h
Protocol: as §1, §2, §3

PC-3 cells = assay: MTT cytotoxicity/anti-proliferation assay, PC-3; format: cell-based; conditions: Homo sapiens
Protocol: as §1, §2, §3

CCCC1N(Cc2ccc(OC)cc2)CCN1Cc1ccc(OC)cc1 [Hit 130]
IC50 (PANC1 cells): > 50000 nM | inhibition at 25 µM (PANC1 cells): 20.3 ± 0.012% | inhibition at 50 µM (PANC1 cells): 34.9 ± 0.017% | IC50 (MDA-MB-231 cells): > 50000 nM | inhibition at 25 µM (MDA-MB-231 cells): 22.9 ± 0.02% | inhibition at 50 µM (MDA-MB-231 cells): 45.5 ± 0.05% | IC50 (Aurora-A kinase [1]; IC50, 0.1–100 μM, duplicates): 5890 nM and 5900 nM | Hill Slope (Aurora-A kinase [1]): 7.6 | inhibition at 10 µM (Aurora-A kinase [1]): 86% | inhibition at 25 µM (T-47D cells): 25.5 ± 0.016% | inhibition at 50 µM (T-47D cells): 31.3 ± 0.008% | IC50 (T-47D cells): > 50000 nM

CCC(=O)Nc1ccc(Sc2nc(Nc3cc(C)[nH]n3)cc(C(C)(C)C)n2)cc1 [Compound 54]
Ki (Aurora-A kinase [2]; ref Bebbington, et al., 2009): 10 nM

COc1cc(Nc2nccc(-c3sc(C)nc3C)n2)cc(OC)c1OC [Compound 68]
Ki (Aurora-A kinase [2]; ref Wang, et al., 2010): 0.4 nM

Cc1cc(Nc2nc(-c3ccccc3)nc3ccccc23)n[nH]1 [Compound 27]
Ki (Aurora-A kinase [2]; ref Pollard and Mortimore, 2009): 58 nM

CCNc1nc(C)c(-c2ccnc(Nc3cc(OC)c(OC)c(OC)c3)n2)s1 [Compound 70]
Ki (Aurora-A kinase [2]; ref Wang, et al., 2010): 3 nM

CCCN(CCO)CCCOc1cc2ncnc(Nc3cc(CC(=O)Nc4cccc(F)c4)[nH]n3)c2cc1OC [Compound 18]
Ki (Aurora-A kinase [2]; ref Mortlock, et al., 2007): 220 nM

CCC(=O)Nc1ccc(Sc2nc(Nc3cc(C)[nH]n3)cc(N3CCN(C(C)(C)C)CC3)n2)cc1 [Compound 61]
Ki (Aurora-A kinase [2]; ref Bebbington, et al., 2009): 1.3 nM

CCN(CCO)CCCOc1cc2ncnc(Nc3cc(CC(=O)Nc4cccc(F)c4F)[nH]n3)c2cc1OC [Compound 19]
Ki (Aurora-A kinase [2]; ref Mortlock, et al., 2007): 360 nM

CCC(=O)Nc1ccc(Sc2nc(Nc3cc(C)[nH]n3)cc(N3CCOCC3)n2)cc1 [Compound 58]
Ki (Aurora-A kinase [2]; ref Bebbington, et al., 2009): 1.7 nM

COc1cc2c(Nc3cc(CC(=O)Nc4cccc(C#N)c4)[nH]n3)ncnc2cc1OCCCN1CCC(CO)CC1 [Compound 8]
Ki (Aurora-A kinase [2]; ref Mortlock, et al., 2007): 2600 nM

O=C(O)c1ccc(Nc2ccnc3cc(Cl)ccc23)cc1O [Hit 141]
IC50 (PANC1 cells): > 50000 nM | inhibition at 25 µM (PANC1 cells): 11.4 ± 0.003% | inhibition at 50 µM (PANC1 cells): 15.7 ± 0.02% | IC50 (MDA-MB-231 cells): > 50000 nM | inhibition at 25 µM (MDA-MB-231 cells): 2.9 ± 0.03% | inhibition at 50 µM (MDA-MB-231 cells): 11.1 ± 0.05% | inhibition at 10 µM (Aurora-A kinase [1]; 10 µM, duplicates, Z'-LYTE): 51% | inhibition at 25 µM (T-47D cells): 21.11 ± 0.01% | inhibition at 50 µM (T-47D cells): 25.04 ± 0.02% | IC50 (T-47D cells): > 50000 nM

CCC(=O)Nc1ccc(Sc2nc(Nc3cc(C)[nH]n3)cc(N3CCCCC3)n2)cc1 [Compound 57]
Ki (Aurora-A kinase [2]; ref Bebbington, et al., 2009): 1.6 nM

Cc1cc(O)c(/N=N/c2ccc(C(=O)O)cc2)cc1C [Hit 88]
IC50 (PANC1 cells): > 50000 nM | inhibition at 25 µM (PANC1 cells): 11.3 ± 0.01% | inhibition at 50 µM (PANC1 cells): 15.1 ± 0.006% | IC50 (MDA-MB-231 cells): > 50000 nM | inhibition at 25 µM (MDA-MB-231 cells): 21.1 ± 0.05% | inhibition at 50 µM (MDA-MB-231 cells): 31.3 ± 0.06% | inhibition at 10 µM (Aurora-A kinase [1]; 10 µM, duplicates, Z'-LYTE): 75% | IC50 (Aurora-A kinase [1]; 0.1–100 μM, duplicates, read-out: IC50): 2600 nM and 2610 nM | Hill Slope (Aurora-A kinase [1]): 1.77 | inhibition at 25 µM (T-47D cells): 26.5 ± 0.01% | inhibition at 50 µM (T-47D cells): 34.9 ± 0.013% | IC50 (T-47D cells): > 50000 nM

CCC(=O)Nc1ccc(Sc2nc(Nc3cc(C)[nH]n3)cc(N3CCC3)n2)cc1 [Compound 56]
Ki (Aurora-A kinase [2]; ref Bebbington, et al., 2009): 2.4 nM

CCCN(CCO)CCCOc1ccc2c(Nc3cc(CC(=O)Nc4cccc(F)c4)[nH]n3)ncnc2c1 [Compound 25]
Ki (Aurora-A kinase [2]; ref Mortlock, et al., 2007): 980 nM

CNc1ccc(Nc2nccc(-c3sc(C)nc3C)n2)cc1 [Compound 66]
Ki (Aurora-A kinase [2]; ref Wang, et al., 2010): 18 nM

CC(=O)Nc1ccc(Sc2nc(Nc3cc(C)[nH]n3)cc(-c3ccccc3)n2)cc1 [Compound 51]
Ki (Aurora-A kinase [2]; ref Bebbington, et al., 2009): 2.4 nM

CCCN(CCO)CCCOc1ccc2c(Nc3cc(CC(=O)Nc4cccc(F)c4F)[nH]n3)ncnc2c1 [Compound 23]
Ki (Aurora-A kinase [2]; ref Mortlock, et al., 2007): 350 nM

COc1cc2c(Nc3cc(CC(=O)Nc4cccc(Cl)c4)[nH]n3)ncnc2cc1OCCCN1CCC(CO)CC1 [Compound 7]
Ki (Aurora-A kinase [2]; ref Mortlock, et al., 2007): 450 nM

COc1cc2c(Nc3cc(CC(=O)Nc4cccc(F)c4F)[nH]n3)ncnc2cc1OCCCN1CCC(CO)CC1 [Compound 5]
Ki (Aurora-A kinase [2]; ref Mortlock, et al., 2007): 410 nM

CCC(=O)Nc1ccc(Sc2nc(Nc3cc(C)[nH]n3)cc(N3CCNCC3)n2)cc1 [Compound 59]
Ki (Aurora-A kinase [2]; ref Bebbington, et al., 2009): 3.7 nM

COc1cc2c(Nc3cc(CC(=O)Nc4cccc(C(F)(F)F)c4)[nH]n3)ncnc2cc1OCCCN1CCC(CO)CC1 [Compound 11]
Ki (Aurora-A kinase [2]; ref Mortlock, et al., 2007): 510 nM

CCC(=O)Nc1ccc(Sc2nc(Nc3cc(C)[nH]n3)cc(N3CCN(C)CC3)n2)cc1 [Compound 60]
Ki (Aurora-A kinase [2]; ref Bebbington, et al., 2009): 1.6 nM

CCN(CCO)CCCOc1cc2ncnc(Nc3cc(CC(=O)Nc4cccc(F)c4)[nH]n3)c2cc1OC [Compound 17]
Ki (Aurora-A kinase [2]; ref Mortlock, et al., 2007): 190 nM

COc1cc(/C=N/c2ccc3ccccc3c2)ccc1O [Hit 112]
inhibition at 25 µM (Fibroblasts; 25 µM): 53.9 ± 0.018% | inhibition at 50 µM (Fibroblasts; 50 µM): 54.3 ± 0.003% | IC50 (Fibroblasts): 15100 ± 3000 nM | IC50 (PANC1 cells): > 50000 nM | inhibition at 25 µM (PANC1 cells): 16 ± 0.02% | inhibition at 50 µM (PANC1 cells): 22.5 ± 0.012% | IC50 (MDA-MB-231 cells): 17900 ± 1400 nM | inhibition at 25 µM (MDA-MB-231 cells): 63.3 ± 0.021% | inhibition at 50 µM (MDA-MB-231 cells): 74.7 ± 0.012% | inhibition at 10 µM (Aurora-A kinase [1]; 10 µM, duplicates, Z'-LYTE): 55% | IC50 (PC-3 cells; PC-3, 72 h): > 50000 nM | inhibition at 25 µM (PC-3 cells; PC-3, 25 µM, 72 h): 19.2% | inhibition at 50 µM (PC-3 cells; PC-3, 50 µM, 72 h): 32.7% | inhibition at 25 µM (T-47D cells): 34.7 ± 0.012% | inhibition at 50 µM (T-47D cells): 48.11 ± 0.003% | IC50 (T-47D cells): > 50000 nM

CCC(=O)Nc1ccc(Sc2nc(Nc3cc(C)[nH]n3)cc(-c3cccnc3)n2)cc1 [Compound 55]
Ki (Aurora-A kinase [2]; ref Bebbington, et al., 2009): 3.9 nM

COc1cc2c(Nc3cc(CC(=O)Nc4ccccc4)[nH]n3)ncnc2cc1OCCCN1CCC(CO)CC1 [Compound 1]
Ki (Aurora-A kinase [2]; ref Mortlock, et al., 2007): 1600 nM
